Assay results published in US20240252677A1, “ONE-COMPONENT DELIVERY SYSTEM FOR NUCLEIC ACIDS” (The Trustees of the University of Pennsylvania, priority 2021, published 2024).
Read-outs that look alike come from different tables or passages of the source.

Columns and labels:
BALB/c mice = settings: cited from earlier work
spleen = test: In vivo mRNA delivery, IVIS imaging of organs: spleen; parameters: species or system mice; key to Organs with luminescence: spleen: strong: Strong meant the luminescence intensity in that organ was relatively high, compared to other organs; weak: Weak meant the luminescence intensity in that organ was relatively low, compared to other organs; settings: for Organs with luminescence: spleen (weak/strong): Table 14; for Organs with luminescence: spleen: Table 17, mice, IVIS, 4-6 h after injection, intensity relative to other organs
liver = test: In vivo mRNA delivery, IVIS imaging of organs: liver; parameters: species or system mice; key to Organs with luminescence: liver: strong: Strong meant the luminescence intensity in that organ was relatively high, compared to other organs; weak: Weak meant the luminescence intensity in that organ was relatively low, compared to other organs; settings: for Organs with luminescence: liver (weak/strong): Table 14; for Organs with luminescence: liver: Table 17, mice, IVIS, 4-6 h after injection, intensity relative to other organs
[1] = pKa measurements of individual IAJD molecules by titration; format: physicochemical; settings: ethanol saturated with NaCl, titrated with 0.1 M aqueous HCl; Table 15; individual IAJD molecule, titration
Summary of the method: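 pKa derived by half-equivalence-point analysis of a pH-meter titration curve: 0.1 M HCl added in 7.5 μL increments to a 1.5 mg/mL solution of each molecule in ethanol saturated with NaCl.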

[2] = Dimensions (size, PDI) of DNPs co-assembled from IAJDs and Luc-mRNA by DLS; format: physicochemical
Summary of the method: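 Hydrodynamic size and PDI were read by dynamic light scattering at 23 °C, 175° backscatter, 633 nm. Particles formed by fast injection of ethanolic IAJD stock (80 mg/mL) into nucleoside-modified luciferase mRNA (stock 4.0 mg/mL) in 10 mM acetate pH 4.0, 5 s vortex.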

HEK293T cells = settings: Table 16, IAJDs marked a (Zhang et al., J. Am. Chem. Soc. 2021); HEK 293T cells, 125 ng/well, n=3; cited from earlier work
[3] = Table 18, symmetric IAJDs, results available in the literature
[4] = Table 20, corresponding symmetric IAJDs (literature per Table 18)
[5] = Table 12, DNPs, IAJD 4 mg/mL + Luc-mRNA 0.10 mg/mL, acetate buffer 10 mM pH 4.0
[6] = Table 13, DNPs, IAJD 4 mg/mL + Luc-mRNA 0.10 mg/mL, acetate buffer pH 4.0
[7] = Table 14, DNPs, IAJD 4 mg/mL + Luc-mRNA 0.10 mg/mL, acetate buffer pH 4.0
[8] = Table 17, DNPs used in vivo, IAJD 4 mg/mL, Luc-mRNA 0.10 mg/mL, acetate pH 4.0

| Structure (SMILES) | In vivo activity (total flux, p/s) (BALB/c mice; [3]) | In vivo activity (total flux, p/s) (BALB/c mice; [4]) | Organs with luminescence: spleen (weak/strong) (spleen; imaging 5 h after injection) | Organs with luminescence: liver (weak/strong) (liver; imaging 5 h after injection) | pKa [1] | PDI [2, 5] | Size (d, nm) [2, 5] | PDI [2, 6] | Size (d, nm) [2, 6] | PDI [2, 7] | Size (d, nm) [2, 7] | Organs with luminescence: spleen (weak/strong) (spleen; imaging 6 h after injection) | Organs with luminescence: spleen (spleen) | Organs with luminescence: liver (weak/strong) (liver; imaging 6 h after injection) | Organs with luminescence: liver (liver) | Luminescence (HEK293T cells) | PDI [2, 8] | Size (d, nm) [2, 8] |
| --- | --- | --- | --- | --- | --- | --- | --- | --- | --- | --- | --- | --- | --- | --- | --- | --- | --- | --- |
| CCCCCCCCCCCCCCOc1cc(COC(=O)CCCN2CCN(C)CC2)cc(OCCCCCCCCCCCCCC)c1 [IAJD 74, 3,5-Bis(tetradecyloxy)benzyl 4-(4-methylpiperazin-1-yl)butanoate] | 1.71 × 10^7 p/s | 1.71 × 10^7 p/s | spleen (strong) | liver (weak), | 6.32 | 0.317 | 180 nm | 0.317 | 180 nm | 0.317 | 180 nm | – | – | – | – | – | – | – |
| CCCCCCCCCCCCCCCCOc1cc(COC(=O)CCCN2CCN(C)CC2)cc(OCCCCCCCCCCCCCCCC)c1 [IAJD 75, 3,5-Bis(hexadecyloxy)benzyl 4-(4-methylpiperazin-1-yl)butanoate] | 3.37 × 10^7 p/s | 3.37 × 10^7 p/s | spleen (strong) | liver (weak), | 6.22 | 0.328 | 235 nm | 0.328 | 235 nm | 0.328 | 235 nm | – | – | – | – | – | – | – |
| CCCCC(CC)COc1cc(COC(=O)CCCN2CCN(C)CC2)cc(OCC(CC)CCCC)c1 (stereo not drawn) [IAJD 76, 3,5-Bis((2-ethylhexyl)oxy)benzyl 4-(4-methylpiperazin-1-yl)butanoate] | 7.81 × 10^7 p/s | – | spleen (strong) | liver (weak), | 6.28 | 0.287 | 78 nm | 0.287 | 78 nm | 0.287 | 78 nm | – | – | – | – | – | – | – |
| CCCCCCCCCOc1cc(COC(=O)CCCN2CCN(C)CC2)cc(OCCCCCCCCC)c1 [IAJD 77, 3,5-Bis(nonyloxy)benzyl 4-(4-methylpiperazin-1-yl)butanoate] | 2.44 × 10^6 p/s | – | spleen (strong) | liver (weak), | 6.4 | 0.267 | 110 nm | 0.267 | 110 nm | 0.267 | 110 nm | – | – | – | – | – | – | – |
| CCCCCCCCCCCCCCCCCCOc1cc(COC(=O)CCCN2CCN(C)CC2)cc(OCCCCCCCCCCC)c1 [IAJD 81, 3-(Octadecyloxy)-5-(undecyloxy)benzyl 4-(4-methylpiperazin-1-yl)butanoate] | – | – | – | – | 6.19 | 0.287 | 111 nm | 0.287 | 111 nm | 0.287 | 111 nm | spleen (weak) | spleen (weak) | liver (strong), | liver (strong), | 206,161 | 0.287 | 111 nm |
| CCCCCCCCCCCCCCCCOc1cc(COC(=O)CCCN2CCN(C)CC2)cc(OCCCCCCCCCCC)c1 [IAJD 86, 3-(Hexadecyloxy)-5-(undecyloxy)benzyl 4-(4-methylpiperazin-1-yl)butanoate] | – | – | spleen (weak) | liver (strong), | 6.24 | 0.234 | 91 nm | 0.234 | 91 nm | 0.234 | 91 nm | – | spleen (weak) | – | liver (strong), | 47,066 | 0.234 | 91 nm |
| CCCCC(CC)COc1cc(COC(=O)CCCN2CCN(CCO)CC2)cc(OCC(CC)CCCC)c1 (stereo not drawn) [IAJD 87, 3,5-Bis((2-ethylhexyl)oxy)benzyl 4-(4-(2-hydroxyethyl)piperazin-1-yl)butanoate] | 3.24 × 10^7 p/s | 3.24 × 10^7 p/s | – | – | 6.49 | 0.486 | 146 nm | 0.486 | 146 nm | 0.486 | 146 nm | spleen (strong) | – | liver (weak), | – | – | – | – |
| CCCCCCCCOc1cc(COC(=O)CCCN2CCN(C)CC2)cc(OCCCCCCCC)c1 [IAJD 88, 3,5-Bis(octyloxy)benzyl 4-(4-methylpiperazin-1-yl)butanoate] | 2.34 × 10^6 p/s | – | – | – | 6.28 | 0.342 | 100 nm | 0.342 | 100 nm | 0.342 | 100 nm | spleen (strong) | – | liver (weak), | – | – | – | – |
| CCCCCCCCOc1cc(COC(=O)CCCN2CCN(CCO)CC2)cc(OCCCCCCCC)c1 [IAJD 89] | 5.92 × 10^7 p/s | – | – | – | 6.45 | 0.467 | 149 nm | 0.467 | 149 nm | 0.467 | 149 nm | spleen (strong) | – | liver (weak), | – | – | – | – |
| CCCCCCCCCCOc1cc(COC(=O)CCCN2CCN(CCO)CC2)cc(OCCCCCCCCCC)c1 [IAJD 91, 3,5-Bis(decyloxy)benzyl 4-(4-(2-hydroxyethyl)piperazin-1-yl)butanoate] | 9.94 × 10^6 p/s | – | – | – | 6.48 | 0.498 | 188 nm | 0.498 | 188 nm | 0.498 | 188 nm | spleen (strong) | – | liver (weak), | – | – | – | – |
| CCCCCCCCCCCCCCCCCCOc1cc(COC(=O)CCCN2CCN(C)CC2)cc(OCCCCCCCCCCCCCCCCCC)c1 [IAJD 98, 3,5-Bis(octadecyloxy)benzyl 4-(4-methylpiperazin-1-yl)butanoate] | 2.06 × 10^6 p/s | 2.06 × 10^6 p/s | – | – | 6.25 | 0.221 | 187 nm | 0.221 | 187 nm | 0.221 | 187 nm | spleen (strong) | – | liver (weak), | – | – | – | – |
| CCCCCCCCCCCCCCCCCCOc1cc(COC(=O)CCCN2CCN(CCO)CC2)cc(OCCCCCCCCCCCCCCCCCC)c1 [IAJD 99, 3,5-Bis(octadecyloxy)benzyl 4-(4-(2-hydroxyethyl)piperazin-1-yl)butanoate] | 4.49 × 10^6 p/s | 4.49 × 10^6 p/s | – | – | 6.31 | 0.571 | 277 nm | 0.571 | 277 nm | 0.571 | 277 nm | spleen (strong) | – | liver (weak), | – | – | – | – |
| CCCCCCCCCCCCCCOc1cc(COC(=O)CCCN2CCN(C)CC2)cc(OCCCCCCCCCCC)c1 [IAJD 105, 3-(Tetradecyloxy)-5-(undecyloxy)benzyl 4-(4-methylpiperazin-1-yl)butanoate] | – | – | – | – | 6.5 | 0.294 | 94 nm | 0.294 | 94 nm | 0.294 | 94 nm | spleen (weak) | spleen (weak) | liver (strong), | liver (strong), | 85 | 0.294 | 94 nm |
